Source: patent publication US9695155B2, “Herbicidal substituted pyrimidinyloxy benzene compounds” (E. I. DU PONT DE NEMOURS AND COMPANY, priority 2013, dated 2017)

Assays:
[1] = test system: wheat; assay: Test A postemergence; type: in vivo, Triticum aestivum
Procedure, shortened: (§1)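 Greenhouse pot test, loam/sand soil. Formulation: non-phytotoxic solvent mix plus surfactant. Pre: directed spray onto soil after sowing. Post: plants at 1–2 leaf, 2–10 cm. Rated visually vs untreated controls at ~10 d, 0 (no effect) to 100 (complete control).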

[2] = test system: Heteranthera limosa; assay: Test B flooded paddy test; type: in vivo; conditions: Flood, 250 g ai/ha; 0 to 100 scale where 0 is no effect and 100 is complete control
Procedure, shortened: (§2)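 2-leaf stage plants; pots flooded to 3 cm, compound added to paddy water, depth maintained. Greenhouse 13–15 d. Visual rating vs untreated controls, 0 (no effect) to 100 (complete control); dash = no result.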

[3] = test system: barnyardgrass; assay: Test C flooded paddy test; type: in vivo, Echinochloa crus-galli; conditions: Flood, scale 0 to 100 (0 no effect, 100 complete control), 13 to 15 days
Source text: (§3) At time of treatment, test pots were flooded to 3 cm above the soil surface, treated by application of test compounds directly to the paddy water, and then maintained at that water depth for the duration of the test. Treated plants and controls were maintained in a greenhouse for 13 to 15 days, after which time all species were compared to controls and visually evaluated. […] A dash (-) response means no test result.

[4] = test system: sedge, umbrella; assay: Test C flooded paddy test; type: in vivo, Cyperus difformis; conditions: Flood, scale 0 to 100 (0 no effect, 100 complete control), 13 to 15 days
Source text: as §3

[5] = test system: morningglory; assay: Test A preemergence; type: in vivo, Ipomoea spp.
Procedure, shortened: as §1

[6] = test system: large (Lg) crabgrass; assay: Test A postemergence; type: in vivo, Digitaria sanguinalis; conditions: 0 to 100 scale where 0 is no effect and 100 is complete control
Procedure, shortened: as §1

[7] = test system: sedge, umbrella; assay: Test B flooded paddy test; type: in vivo, Cyperus difformis; conditions: Flood, 250 g ai/ha; 0 to 100 scale where 0 is no effect and 100 is complete control
Procedure, shortened: as §2

[8] = test system: large (Lg) crabgrass; assay: Test A preemergence; type: in vivo, Digitaria sanguinalis
Procedure, shortened: as §1

[9] = test system: velvetleaf; assay: Test A preemergence; type: in vivo, Abutilon theophrasti
Procedure, shortened: as §1

[10] = test system: rice; assay: Test B flooded paddy test; type: in vivo, Oryza sativa; conditions: Flood, 250 g ai/ha; 0 to 100 scale where 0 is no effect and 100 is complete control
Procedure, shortened: as §2

[11] = test system: giant foxtail; assay: Test A preemergence; type: in vivo, Setaria faberii; conditions: for Foxtail, Giant plant response rating (0 to 100 scale): 125 g ai/ha
Procedure, shortened: as §1

[12] = test system: corn; assay: Test A preemergence; type: in vivo, Zea mays
Procedure, shortened: as §1

[13] = test system: barnyardgrass; assay: Test B flooded paddy test; type: in vivo, Echinochloa crus-galli; conditions: Flood, 250 g ai/ha; 0 to 100 scale where 0 is no effect and 100 is complete control
Procedure, shortened: as §2

[14] = test system: barnyardgrass; assay: Test A postemergence; type: in vivo, Echinochloa crus-galli
Procedure, shortened: as §1

[15] = test system: pigweed; assay: Test A postemergence; type: in vivo, Amaranthus retroflexus
Procedure, shortened: as §1

[16] = test system: pigweed; assay: Test A preemergence; type: in vivo, Amaranthus retroflexus; conditions: for Pigweed plant response rating (0 to 100 scale): 125 g ai/ha
Procedure, shortened: as §1

[17] = test system: morningglory; assay: Test A postemergence; type: in vivo, Ipomoea spp.; conditions: 0 to 100 scale where 0 is no effect and 100 is complete control
Procedure, shortened: as §1

[18] = test system: barnyardgrass; assay: Test A preemergence; type: in vivo, Echinochloa crus-galli; conditions: for Barnyardgrass plant response rating (0 to 100 scale, 0 is no effect, 100 is complete control): 125 g ai/ha
Procedure, shortened: as §1

[19] = test system: velvetleaf; assay: Test A postemergence; type: in vivo, Abutilon theophrasti; conditions: 0 to 100 scale where 0 is no effect and 100 is complete control
Procedure, shortened: as §1

[20] = test system: corn; assay: Test A postemergence; type: in vivo, Zea mays
Procedure, shortened: as §1

[21] = test system: rice; assay: Test C flooded paddy test; type: in vivo, Oryza sativa; conditions: Flood, scale 0 to 100 (0 no effect, 100 complete control), 13 to 15 days
Source text: as §3

[22] = test system: wheat; assay: Test A preemergence; type: in vivo, Triticum aestivum
Procedure, shortened: as §1

[23] = test system: ducksalad; assay: Test C flooded paddy test; type: in vivo, Heteranthera limosa; conditions: Flood, scale 0 to 100 (0 no effect, 100 complete control), 13 to 15 days
Source text: as §3

[24] = test system: giant foxtail; assay: Test A postemergence; type: in vivo, Setaria faberii
Procedure, shortened: as §1

[25] = test system: kochia; assay: Test A postemergence; type: in vivo, Kochia scoparia; conditions: 0 to 100 scale, 0 no effect, 100 complete control
Procedure, shortened: as §1

[26] = test system: ragweed; assay: Test A postemergence; type: in vivo, Ambrosia elatior; conditions: 0 to 100 scale, 0 no effect, 100 complete control
Procedure, shortened: as §1

[27] = test system: kochia; assay: Test A preemergence; type: in vivo, Kochia scoparia
Procedure, shortened: as §1

[28] = test system: ragweed; assay: Test A preemergence; type: in vivo, Ambrosia elatior
Procedure, shortened: as §1

[29] = test system: blackgrass; assay: Test A postemergence; type: in vivo, Alopecurus myosuroides; conditions: 0 to 100 scale, 0 no effect, 100 complete control
Procedure, shortened: as §1

[30] = test system: galium; assay: Test A postemergence; type: in vivo, Galium aparine; conditions: 0 to 100 scale, 0 no effect, 100 complete control
Procedure, shortened: as §1

[31] = test system: Italian ryegrass; assay: Test A postemergence; type: in vivo, Lolium multiflorum; conditions: 0 to 100 scale, 0 no effect, 100 complete control
Procedure, shortened: as §1

[32] = test system: Italian ryegrass; assay: Test A preemergence; type: in vivo, Lolium multiflorum
Procedure, shortened: as §1

[33] = 125 g ai/ha, 0 to 100 scale where 0 is no effect and 100 is complete control
[34] = 500 g ai/ha, 0 to 100 scale where 0 is no effect and 100 is complete control
[35] = 31 g ai/ha, 0 to 100 scale, 0 no effect, 100 complete control
[36] = 125 g ai/ha, 0 to 100 scale, 0 no effect, 100 complete control
[37] = 31 g ai/ha, 0 to 100 scale where 0 is no effect and 100 is complete control, visual, approximately 10 days

FC(F)c1cccc(Oc2ncc(Br)cn2)c1-n1cc(Br)cn1 [Compound 231]
Wheat plant response rating [1, 33]: 20 | Plant response rating, Wheat [1, 34]: 50 | Plant response rating, Ducksalad [2]: 80 | Plant response rating, Barnyardgrass ([3]; 31 g ai/ha): 0 | Plant response rating, Barnyardgrass ([3]; 62 g ai/ha): 0 | Plant response rating, Barnyardgrass ([3]; 125 g ai/ha): 0 | Plant response rating, Barnyardgrass ([3]; 250 g ai/ha): 0 | Plant response rating, Sedge, Umbrella ([4]; 31 g ai/ha): 0 | Plant response rating, Sedge, Umbrella ([4]; 62 g ai/ha): 50 | Plant response rating, Sedge, Umbrella ([4]; 125 g ai/ha): 70 | Plant response rating, Sedge, Umbrella ([4]; 250 g ai/ha): 80 | Morningglory plant response rating (0 to 100 scale) ([5]; 125 g ai/ha): 0 | Morningglory plant response rating [5, 34]: 30 | Crabgrass, Large plant response rating ([6]; 125 g ai/ha): 70 | Plant response rating, Crabgrass, Large ([6]; 500 g ai/ha): 90 | Plant response rating, Sedge, Umbrella [7]: 80 | Crabgrass, Large plant response rating (0 to 100 scale) ([8]; 125 g ai/ha): 90 | Crabgrass, Large plant response rating [8, 34]: 100 | Velvetleaf plant response rating (0 to 100 scale) ([9]; 125 g ai/ha): 0 | Velvetleaf plant response rating [9, 34]: 100 | Plant response rating, Rice [10]: 30 | Foxtail, Giant plant response rating (0 to 100 scale) [11]: 90 | Foxtail, Giant plant response rating [11, 34]: 100 | Corn plant response rating (0 to 100 scale) ([12]; 125 g ai/ha): 0 | Corn plant response rating [12, 34]: 20 | Plant response rating, Barnyardgrass [13]: 20 | Barnyardgrass plant response rating [14, 33]: 40 | Plant response rating, Barnyardgrass [14, 34]: 90 | Pigweed plant response rating [15, 33]: 100 | Plant response rating, Pigweed [15, 34]: 100 | Pigweed plant response rating (0 to 100 scale) [16]: 90 | Pigweed plant response rating [16, 34]: 100 | Morningglory plant response rating ([17]; 125 g ai/ha): 30 | Plant response rating, Morningglory ([17]; 500 g ai/ha): 90 | Barnyardgrass plant response rating (0 to 100 scale, 0 is no effect, 100 is complete control) [18]: 20 | Barnyardgrass plant response rating [18, 34]: 100 | Velvetleaf plant response rating ([19]; 125 g ai/ha): 100 | Plant response rating, Velvetleaf ([19]; 500 g ai/ha): 100 | Corn plant response rating [20, 33]: 20 | Plant response rating, Corn [20, 34]: 90 | Plant response rating, Rice ([21]; 31 g ai/ha): 0 | Plant response rating, Rice ([21]; 62 g ai/ha): 0 | Plant response rating, Rice ([21]; 125 g ai/ha): 0 | Plant response rating, Rice ([21]; 250 g ai/ha): 0 | Wheat plant response rating (0 to 100 scale) ([22]; 125 g ai/ha): 0 | Wheat plant response rating [22, 34]: 20 | Plant response rating, Ducksalad ([23]; 31 g ai/ha): 0 | Plant response rating, Ducksalad ([23]; 62 g ai/ha): 30 | Plant response rating, Ducksalad ([23]; 125 g ai/ha): 70 | Plant response rating, Ducksalad ([23]; 250 g ai/ha): 75 | Foxtail, Giant plant response rating [24, 33]: 70 | Plant response rating, Foxtail, Giant [24, 34]: 90

N#Cc1cccc(Oc2ncc(Cl)cn2)c1-n1ccnc1 [Compound 261]
Plant response rating, Wheat [1, 35]: 0 | Plant response rating, Wheat [1, 36]: 0 | Plant response rating, Kochia ([25]; 31 g ai/ha): 50 | Plant response rating, Kochia ([25]; 125 g ai/ha): 70 | Plant response rating, Ducksalad [2]: 0 | Plant response rating, Ragweed ([26]; 31 g ai/ha): 20 | Plant response rating, Ragweed ([26]; 125 g ai/ha): 30 | Plant response rating, Sedge, Umbrella [7]: 0 | Plant response rating, Rice [10]: 0 | Plant response rating, Kochia [27, 37]: 0 | Kochia plant response rating (0 to 100 scale) ([27]; 125 g ai/ha): 0 | Plant response rating, Foxtail, Giant [11, 37]: 0 | Foxtail, Giant plant response rating (0 to 100 scale) [11]: 0 | Plant response rating, Ragweed [28, 37]: 0 | Ragweed plant response rating (0 to 100 scale) ([28]; 125 g ai/ha): 0 | Plant response rating, Barnyardgrass [13]: 0 | Plant response rating, Barnyardgrass [14, 35]: 0 | Plant response rating, Barnyardgrass [14, 36]: 0 | Plant response rating, Pigweed [15, 35]: 30 | Plant response rating, Pigweed [15, 36]: 60 | Plant response rating, Pigweed [16, 37]: 0 | Pigweed plant response rating (0 to 100 scale) [16]: 0 | Plant response rating, Blackgrass ([29]; 31 g ai/ha): 0 | Plant response rating, Blackgrass ([29]; 125 g ai/ha): 0 | Plant response rating, Barnyardgrass [18, 37]: 0 | Barnyardgrass plant response rating (0 to 100 scale, 0 is no effect, 100 is complete control) [18]: 0 | Plant response rating, Corn [20, 35]: 0 | Plant response rating, Corn [20, 36]: 0 | Plant response rating, Galium ([30]; 31 g ai/ha): 30 | Plant response rating, Galium ([30]; 125 g ai/ha): 50 | Plant response rating, Ryegrass, Italian ([31]; 31 g ai/ha): 0 | Plant response rating, Ryegrass, Italian ([31]; 125 g ai/ha): 0 | Plant response rating, Ryegrass, Italian [32, 37]: 0 | Ryegrass, Italian plant response rating (0 to 100 scale) ([32]; 125 g ai/ha): 0 | Plant response rating, Foxtail, Giant [24, 35]: 0 | Plant response rating, Foxtail, Giant [24, 36]: 10
